Measured values taken from US8232406B2, “c-MET protein kinase inhibitors” (Vertex Pharmaceuticals Incorporated, priority 2006, dated 2012).

Target: c-MET (Homo sapiens, UniProt P08581)
Assay: Ki determination for the inhibition of c-MET (standard radiometric 33P-ATP kinase assay, polyE4Y substrate)
Assay type: biochemical
Conditions: 1.0 nM c-Met, 35 μM ATP, 0.5 mg/mL polyE4Y, 20 min; competitive tight-binding fit
In short: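 Ki obtained by fitting data to competitive tight-binding inhibition kinetics. c-Met at 1.0 nM phosphorylated polyE4Y (0.5 mg/mL) with 35 μM 33P-ATP for 20 min in pH 7.5 HEPES buffer with MgCl2, NaCl, BSA and DTT. Incorporated label measured by scintillation after TCA precipitation on filters.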

c-MET, sequence (P08581 25-1390): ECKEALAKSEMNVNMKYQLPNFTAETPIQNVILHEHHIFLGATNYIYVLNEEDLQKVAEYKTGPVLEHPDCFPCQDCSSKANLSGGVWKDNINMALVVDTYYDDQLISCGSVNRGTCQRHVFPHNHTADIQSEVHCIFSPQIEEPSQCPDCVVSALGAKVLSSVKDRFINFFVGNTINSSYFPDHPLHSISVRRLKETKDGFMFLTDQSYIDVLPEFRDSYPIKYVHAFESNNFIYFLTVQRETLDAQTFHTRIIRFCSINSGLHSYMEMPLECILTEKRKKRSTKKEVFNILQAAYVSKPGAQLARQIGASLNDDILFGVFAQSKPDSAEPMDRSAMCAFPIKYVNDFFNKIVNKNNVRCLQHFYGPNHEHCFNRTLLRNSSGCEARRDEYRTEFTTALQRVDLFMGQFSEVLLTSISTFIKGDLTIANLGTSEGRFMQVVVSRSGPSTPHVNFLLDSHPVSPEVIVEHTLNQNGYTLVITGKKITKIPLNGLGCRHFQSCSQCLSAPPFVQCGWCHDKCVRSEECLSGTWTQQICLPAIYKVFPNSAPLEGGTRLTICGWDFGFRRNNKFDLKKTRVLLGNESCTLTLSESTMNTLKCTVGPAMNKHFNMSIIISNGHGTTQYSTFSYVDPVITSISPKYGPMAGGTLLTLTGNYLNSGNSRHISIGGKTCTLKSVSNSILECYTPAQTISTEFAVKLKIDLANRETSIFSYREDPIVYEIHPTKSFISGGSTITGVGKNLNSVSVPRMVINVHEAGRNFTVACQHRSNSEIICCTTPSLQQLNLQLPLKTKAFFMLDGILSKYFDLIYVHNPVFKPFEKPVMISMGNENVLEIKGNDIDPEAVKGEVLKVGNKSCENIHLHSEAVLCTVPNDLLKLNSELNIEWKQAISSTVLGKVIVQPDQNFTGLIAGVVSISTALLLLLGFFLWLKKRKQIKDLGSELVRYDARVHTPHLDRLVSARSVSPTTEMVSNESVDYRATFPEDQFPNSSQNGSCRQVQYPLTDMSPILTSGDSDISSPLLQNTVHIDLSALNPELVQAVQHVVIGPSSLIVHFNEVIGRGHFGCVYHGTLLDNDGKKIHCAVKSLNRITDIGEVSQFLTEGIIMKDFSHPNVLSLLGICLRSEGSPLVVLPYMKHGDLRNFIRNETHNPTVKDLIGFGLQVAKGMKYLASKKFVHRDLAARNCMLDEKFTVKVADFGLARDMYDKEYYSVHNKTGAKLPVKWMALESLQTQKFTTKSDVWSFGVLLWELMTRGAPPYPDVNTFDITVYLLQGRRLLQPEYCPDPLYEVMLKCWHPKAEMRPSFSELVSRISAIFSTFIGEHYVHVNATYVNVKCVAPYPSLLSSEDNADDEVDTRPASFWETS

| Ki [nM] | SMILES |
| --- | --- |
| ≤ 100 | COC(=O)C(C)(C)c1ccc(-c2cnc(N)c(-c3nnnn3-c3cccc(F)c3F)c2)cc1 [I-A-207] |
| ≤ 100 | Nc1nc2cc(F)c(-c3cnc(N)c(-c4nncn4-c4cccc(F)c4F)n3)cc2[nH]1 [I-A-56] |
| ≤ 100 | CN(C)CCCN(C)Cc1ccc(-c2cnc(N)c(-c3nnnn3-c3cccc(Cl)c3Cl)c2)cc1 [I-A-95] |
| ≤ 100 | Nc1ncc(-c2cnn([C@H]3CCCNC3)c2)nc1-c1nnnn1-c1cccc(Cl)c1F [I-A-658] |
| ≤ 100 | Nc1ccc(-c2cnc(N)c(-c3nnnn3-c3cccc(Cl)c3Cl)c2)cc1 [I-A-86] |
| ≤ 100 | CC(=O)N1CCC(n2cc(-c3cnc(N)c(-c4nnc(C)n4-c4cccc(Cl)c4F)c3)cn2)CC1 [I-A-457] |
| 100 to 1000 | CCNC(=O)Nc1nc2cc(OC)c(-c3cnc(N)c(-c4nnnn4-c4cccc(F)c4F)n3)cc2[nH]1 [I-A-55] |
| ≤ 100 | CN1CCC(n2cc(-c3cnc(N)c(-c4nnnn4-c4cccc(Cl)c4F)c3)cn2)CC1 [I-A-436] |
| ≤ 100 | Nc1ncc(-c2cnn(C3CCNCC3)c2)cc1-c1nnnn1-c1cccc(Cl)c1F [I-A-626] |
| 100 to 1000 | Nc1ncc(-c2ccc(CN3CCCC3)cc2)cc1-c1nnnn1-c1cccc(F)c1Cl [I-A-386] |
| ≤ 100 | CN(C)CCCNC(=O)c1ccc(-c2cnc(N)c(-c3nnnn3-c3cccc(F)c3F)c2)cc1 [I-A-136] |
| ≤ 100 | Nc1ncc(-c2ccc(C3CCNCC3)s2)cc1-c1nnnn1-c1cccc(F)c1F [I-A-415] |
| ≤ 100 | CC1(C)CC(C(=O)N2CC=C(c3cnc(N)c(-c4nnnn4-c4cccc(F)c4F)c3)CC2)CCO1 (centres unmarked) [I-A-515] |
| 100 to 1000 | Nc1ncc(-c2cscn2)nc1-c1nnnn1-c1ccccc1F [I-A-541] |
| ≤ 100 | COc1cc2nc(N)[nH]c2cc1-c1cnc(N)c(-c2nnnn2-c2cccc(F)c2F)n1 [I-A-54] |
| 100 to 1000 | COC(=O)[C@H](CC(C)C)NC(=O)Nc1ccc(-c2cnc(N)c(-c3nnnn3-c3cccc(F)c3F)c2)cc1 [I-A-330] |
| 100 to 1000 | CN(C)Cc1ccc(-c2cnc(N)c(-c3nnnn3-c3cc(F)cc(F)c3Cl)c2)cc1 [I-A-605] |
| 100 to 1000 | CN1CCN(c2ccc(-c3cnc(N)c(-c4nc5cccnc5n4-c4cccc(Cl)c4F)c3)cc2)CC1 [I-D-17] |
| 100 to 1000 | Nc1ncc(-c2ccc(CN3CCCC3)cc2)cc1-c1nnnn1-c1cc(F)ccc1Cl [I-A-596] |
| 100 to 1000 | Nc1ncc(-c2cccc(C(F)(F)F)c2)cc1-c1nnnn1-c1cccc(F)c1F [I-A-215] |
| 100 to 1000 | CC(=O)Nc1cccc(-c2cnc(N)c(-c3nnnn3-c3c(Cl)cccc3Cl)c2)c1 [I-A-611] |

| Ki [nM] | SMILES |
| --- | --- |
| ≤ 100 | Nc1ncc(-c2ccccc2F)cc1-c1nnnn1-c1cccc(F)c1F [I-A-313] |
| ≤ 100 | Nc1ccc(-c2cnc(N)c(-c3nncn3-c3cccc(F)c3F)n2)cc1 [I-A-10] |
| ≤ 100 | Nc1ncc(-c2cccc(O)c2)cc1-c1nnnn1-c1cccc(F)c1F [I-A-247] |
| 100 to 1000 | Nc1ncc(-c2nccs2)cc1-c1nnnn1-c1cccc(F)c1F [I-A-539] |
| 100 to 1000 | Nc1ncc(-c2cccnc2)nc1-c1nncn1-c1cc(Cl)ccc1F [I-A-34] |
| 100 to 1000 | CC(C)Oc1ccc(-c2cnc(N)c(-c3nnnn3-c3cccc(F)c3F)c2)cc1 [I-A-240] |
| 100 to 1000 | Nc1ncc(-c2ccsc2)cc1-c1nncn1-c1cccc(Cl)c1Cl [I-A-70] |
| ≤ 100 | Nc1ncc(-c2ccc(CN3CCCC3)cc2)cc1-c1nnnn1-c1cccc(F)c1F [I-A-67] |
| ≤ 100 | Nc1ncc(C2=CCN(C(=O)C3CCOC3)CC2)cc1-c1nnnn1-c1cccc(F)c1F (centres unmarked) [I-A-422] |
| ≤ 100 | Nc1nc2ccc(-c3cnc(N)c(-c4nnnn4-c4cccc(F)c4F)c3)cc2s1 [I-A-308] |
| 100 to 1000 | Nc1ncc(-c2ccc3nccnc3c2)cc1-c1nnnn1-c1cccc(F)c1F [I-A-304] |
| 100 to 1000 | Nc1ncc(-c2ccc(CN3CCN(Cc4ccncc4)CC3)cc2)cc1-c1nnnn1-c1cccc(Cl)c1Cl [I-A-105] |
| ≤ 100 | Nc1ncc(-c2cc3c(s2)CCNCC3)cc1-c1nnnn1-c1cccc(Cl)c1Cl [I-A-431] |
| ≤ 100 | Nc1ncc(-c2cnn(C3CCCNCC3)c2)cc1-c1nnnn1-c1cccc(F)c1F (centres unmarked) [I-A-428] |
| 100 to 1000 | CC(=O)Nc1ccc(-c2cnc(N)c(-c3nnnn3-c3cc(Cl)cc(Cl)c3)c2)cc1 [I-A-587] |
| 100 to 1000 | CC(=O)Nc1cccc(-c2cnc(N)c(-n3nnnc3-c3cccc(F)c3F)c2)c1 [I-E-5] |
| ≤ 100 | Nc1ncc(-c2cccc(F)c2)cc1-c1nnnn1-c1cccc(F)c1F [I-A-314] |
| 100 to 1000 | Nc1ncc(-c2cccnc2)cc1-c1nnnn1-c1c(F)cccc1Cl [I-A-617] |
| 100 to 1000 | N#Cc1cc(-c2cnc(N)c(-c3nnnn3-c3cccc(F)c3F)c2)ccc1N1CCCC1 [I-A-336] |
| ≤ 100 | Nc1ncc(-c2ccc3ncccc3c2)cc1-c1nnnn1-c1cccc(F)c1F [I-A-321] |
| 100 to 1000 | Nc1ncc(-c2cccc(NC(=O)Nc3cccs3)c2)cc1-c1nnnn1-c1cccc(F)c1F [I-A-275] |

Continued, compound first:

| SMILES | Ki [nM] |
| --- | --- |
| Nc1ncc(-c2ccc(CN3CCCC3)cc2)cc1-c1nnnn1-c1c(F)ccc(Cl)c1F [I-A-376] | ≤ 100 |
| Cc1ccc(Cl)cc1-n1nnnc1-c1cc(-c2cnn(C3CCNCC3)c2)cnc1N [I-A-632] | 100 to 1000 |
| Nc1ncc(-c2ccco2)cc1-c1nnnn1-c1cccc(F)c1F [I-A-488] | 100 to 1000 |
| Nc1ncc(-c2ccc(CN3CC[C@H](O)C3)cc2)cc1-c1nnnn1-c1cccc(F)c1F [I-A-131] | ≤ 100 |
| Nc1ncc(-c2cc3c(s2)CNCC3)nc1-c1nnnn1-c1cccc(Cl)c1F [I-A-542] | ≤ 100 |
| CC(C)CC(=O)N1CC=C(c2cnc(N)c(-c3nnnn3-c3cccc(F)c3F)c2)CC1 [I-A-513] | ≤ 100 |
| CC1CCC(C)N1Cc1ccc(-c2cnc(N)c(-c3nnnn3-c3cccc(F)c3F)c2)cc1 (centres unmarked) [I-A-210] | ≤ 100 |
| CC(=O)Nc1ccc(-c2cnc(N)c(-c3nnnn3-c3cccc(F)c3F)c2)cc1F [I-A-127] | ≤ 100 |
| CCN(C)Cc1ccc(-c2cnc(N)c(-c3nnnn3-c3cccc(F)c3F)c2)cc1 [I-A-149] | ≤ 100 |
| Nc1ncc(-c2cccc3c2OC(F)(F)O3)cc1-c1nnnn1-c1cccc(F)c1F [I-A-310] | 100 to 1000 |
| Cc1ccc(-c2cnc(N)c(-c3nnnn3-c3cccc(F)c3F)c2)cc1 [I-A-255] | 100 to 1000 |
| Nc1ncc(-c2cccc(NC(=O)NC3CCCC3)c2)cc1-c1nnnn1-c1cccc(F)c1F [I-A-329] | ≤ 100 |
| CN(C)Cc1ccc(-c2cnc(N)c(-c3nncn3-c3cccc(F)c3F)n2)cc1 [I-A-8] | ≤ 100 |
| CN1CCN(Cc2ccc(-c3cnc(N)c(-c4nncn4-c4cccc(F)c4F)n3)cc2)CC1 [I-A-6] | ≤ 100 |
| Nc1ncc(C2=CCN(C(=O)C3CCCOC3)CC2)cc1-c1nnnn1-c1cccc(F)c1F (centres unmarked) [I-A-522] | ≤ 100 |
| CN(C)Cc1ccc(-c2cnc(N)c(-c3nnsc3-c3cccc(Cl)c3Cl)c2)cc1 [I-C-5] | ≤ 100 |
| CN(C)CCCNC(=O)c1ccc(-c2cnc(N)c(-c3nnnn3-c3cccc(Cl)c3Cl)c2)cc1 [I-A-125] | ≤ 100 |
| Nc1ncc(-c2ccc(NC(=O)CN3CCC[C@H]3CO)cc2)cc1-c1nnnn1-c1cccc(F)c1F [I-A-160] | 100 to 1000 |
| CC(=O)c1cccc(-c2cnc(N)c(-c3nnnn3-c3cccc(F)c3F)c2)c1 [I-A-218] | ≤ 100 |
| Nc1ncc(-c2ccc(NC(=O)c3ccncc3)cc2)cc1-c1nnnn1-c1cccc(F)c1F [I-A-280] | ≤ 100 |
| Nc1ncc(-c2cccnc2)cc1-c1nnnn1-c1cc(Cl)ccc1F [I-A-554] | 100 to 1000 |

| SMILES | Ki [nM] |
| --- | --- |
| Nc1ncc(C2=CCN(C(=O)c3ccncc3)CC2)cc1-c1nnnn1-c1cccc(F)c1F [I-A-518] | ≤ 100 |
| Nc1ncc(-c2cnn([C@H]3CCOC3)c2)cc1-c1nnnn1-c1cccc(F)c1F [I-A-425] | ≤ 100 |
| Nc1ncc(-c2ccc(N3CCCC3=O)cc2)cc1-c1nnnn1-c1cccc(F)c1F [I-A-189] | ≤ 100 |
| Nc1ncc(-c2cnn(C3CC4CCC(C3)N4)c2)cc1-c1nnnn1-c1cccc(Cl)c1F (centres unmarked) [I-A-528] | ≤ 100 |
| CC1(C)CN(c2cccc(-c3cnc(N)c(-c4nnnn4-c4cccc(F)c4F)c3)c2)C1=O [I-A-324] | 100 to 1000 |
| Nc1ncc(C2=CCN(C(=O)[C@@H]3CCC(=O)N3)CC2)cc1-c1nnnn1-c1cccc(F)c1F [I-A-642] | ≤ 100 |
| Nc1ncc(-c2ccc3c(c2)NC(=O)C3)cc1-c1nnnn1-c1cccc(F)c1F [I-A-190] | ≤ 100 |
| CC(=O)N1CCC(n2cc(-c3cnc(N)c(-c4nnnn4-c4cccc(F)c4Cl)c3)cn2)CC1 [I-A-392] | 100 to 1000 |
| Nc1ncc(-c2ccc(N3CCNCC3)cc2)cc1-c1nc2cnccc2n1-c1cccc(F)c1F [I-D-23] | ≤ 100 |
| COc1ccc(-c2cnc(N)c(-c3nncn3-c3cccc(Cl)c3Cl)c2)cc1 [I-A-69] | 100 to 1000 |
| CC(C)(C)NC(=O)Nc1ccc(-c2cnc(N)c(-c3nnnn3-c3cccc(F)c3F)c2)cc1 [I-A-332] | ≤ 100 |
| Nc1ncc(-c2ccc(CN3CCC(N4CCCCC4)CC3)cc2)cc1-c1nnnn1-c1cccc(Cl)c1Cl [I-A-98] | ≤ 100 |
| COCC(=O)Nc1ccc(-c2cnc(N)c(-c3nnnn3-c3cccc(F)c3F)c2)cc1 [I-A-342] | ≤ 100 |
| N#Cc1ccc(-c2cnc(N)c(-c3nncn3-c3cccc(F)c3F)c2)cc1 [I-A-113] | 100 to 1000 |
| Nc1ncc(C2=CCC(N)CC2)cc1-c1nnnn1-c1cccc(F)c1F (centres unmarked) [I-A-158] | ≤ 100 |
| NC(=O)c1ccc(-c2cnc(N)c(-c3nnnn3-c3cccc(F)c3F)c2)cc1 [I-A-245] | ≤ 100 |
| CS(=O)(=O)Nc1ccc(-c2cnc(N)c(-c3nnnn3-c3cccc(F)c3F)c2)cc1 [I-A-353] | 100 to 1000 |
| CCOC(=O)CC(=O)Nc1ccc(-c2cnc(N)c(-c3nnnn3-c3cccc(F)c3F)c2)cc1 [I-A-196] | 100 to 1000 |
| CCNC(=O)Nc1nc2cc(-c3cnc(N)c(-c4nnnn4-c4cccc(F)c4F)c3)c(OC)cc2[nH]1 [I-A-142] | 100 to 1000 |
| Nc1ncc(-c2cnn([C@@H]3CCCNC3)c2)cc1-c1nnnn1-c1cccc(F)c1F [I-A-417] | ≤ 100 |
